Experimental data reported in ChEMBL document CHEMBL1151212, “Ananosic acids B and C, two new 18(13-->12)-abeo-lanostane triterpenoids from Kadsura ananosma” (J Nat Prod, 2004).
Converted amounts (≈) assume the structure as drawn.

Key:
HeLa = assay: Cytotoxicity against human HeLa cells assessed as cell viability; format: functional, cell-based
CCRF-CEM = assay: Cytotoxicity against human CCRF-CEM cells assessed as cell viability; format: functional, cell-based

Row | Structure (SMILES) | IC50 (HeLa) | IC50 (CCRF-CEM)
1 | C/C(=C/CC[C@@H](C)C1=C2C(C)C[C@H]3C(=CC[C@H]4C(C)(C)[C@H](O)CC[C@]34C)[C@]2(C)CC1)C(=O)O (stereo partly specified) [ANANOSIC ACID A] | 0.46 µg/mL (≈ 1.01 µM) | 45.4 µg/mL (≈ 99.8 µM)
2 | C=C1C[C@H]2C(=CC[C@H]3C(C)(C)[C@H](OC(C)=O)CC[C@]23C)[C@]2(C)CC[C@H]([C@H](C)CC/C=C(/C)C(=O)O)C12 (stereo partly specified) [ANANOSIC ACID B] | 0.54 µg/mL (≈ 1.09 µM) | 49.6 µg/mL (≈ 99.9 µM)
3 | C=C1C[C@H]2C(=CC[C@H]3C(C)(C)C(=O)CC[C@]23C)[C@]2(C)CC[C@H]([C@H](C)CC/C=C(/C)C(=O)O)C12 (stereo partly specified) [ANANOSIC ACID C] | 0.48 µg/mL (≈ 1.06 µM) | 45.2 µg/mL (≈ 99.9 µM)
